Usually IC50 stands for the concentration that gives 50% inhibition.

The source of these data is ChEMBL document CHEMBL1949618, “Synthesis and properties of mRNA cap analogs containing imidodiphosphate moiety--fairly mimicking natural cap structure, yet resistant to enzymatic hydrolysis” (Bioorg Med Chem, 2012).

The nature of data set [1]: Chemical stability of the compound in aqueous buffer at pH 2 assessed as decomposition at 5 mM up to 2 hrs by RP-HPLC. It counts as physicochemical. Particulars: pH 2, 2 h, 5000 µM.
Data set [2] in a line: Chemical stability of the compound in aqueous buffer at pH 2 assessed as decomposition at 5 mM after 24 hrs by RP-HPLC. The format is physicochemical. Particulars: read-out: Drug degradation.
Data set [3] is described as follows: Chemical stability of the compound in aqueous buffer at pH 6 assessed as decomposition at 5 mM up to 2 hrs by RP-HPLC. It counts as physicochemical. Particulars: pH 6, 2 h, 5000 µM.
Data set [4] in a line: Chemical stability of the compound in aqueous buffer at pH 6 assessed as decomposition at 5 mM after 24 hrs by RP-HPLC. The format is physicochemical. Particulars: read-out: Drug degradation.
A short description of data set [5]: Chemical stability of the compound in aqueous buffer at pH 8 assessed as decomposition at 5 mM up to 2 hrs by RP-HPLC. It counts as physicochemical. Particulars: pH 8, 2 h, 5000 µM.
A short description of data set [6]: Chemical stability of the compound in aqueous buffer at pH 8 assessed as decomposition at 5 mM after 24 hrs by RP-HPLC. The format is physicochemical. Particulars: read-out: Drug degradation.
Data set [7] in a line: Stability of the compound at -20 degreeC after 12 months. The format is physicochemical. Particulars: 8766 h.
The target in data set [8] is Eukaryotic translation initiation factor 4E (Homo sapiens) (UniProt P06730). Briefly: Binding affinity to recombinant eIF4E by fluorescence quenching titration method.
Data set [9] can be described thus: Stability of the compound assessed as human recombinant DcpS -mediated hydrolysis after 2 hrs by HPLC. The format is ADME.
For another data set, the species on record is Homo sapiens. Briefly: Selectivity ratio of Ka for human recombinant DcpS to Ka for eIF4E.
Data set [10] deals with T1, Eukaryotic translation initiation factor 4E (Oryctolagus cuniculus, UniProt P29338). Nature of the data set: Inhibition of eIF4E-mediated mRNA translation in rabbit reticulocyte lysate by luciferase reporter gene assay. For orientation: Reporter assays use an easily measured gene product as a stand-in for the process of interest.
For data set [11], the target named is T1, Eukaryotic translation initiation factor 4E. Briefly: Inhibition of eIF4E-mediated mRNA translation in rabbit reticulocyte lysate pre-incubated for 60 mins prior to mRNA addition by luciferase reporter gene assay.
Data set [12] has as its target T2, m7GpppX diphosphatase (Homo sapiens) (UniProt Q96C86).
T2 sequence (whole entry): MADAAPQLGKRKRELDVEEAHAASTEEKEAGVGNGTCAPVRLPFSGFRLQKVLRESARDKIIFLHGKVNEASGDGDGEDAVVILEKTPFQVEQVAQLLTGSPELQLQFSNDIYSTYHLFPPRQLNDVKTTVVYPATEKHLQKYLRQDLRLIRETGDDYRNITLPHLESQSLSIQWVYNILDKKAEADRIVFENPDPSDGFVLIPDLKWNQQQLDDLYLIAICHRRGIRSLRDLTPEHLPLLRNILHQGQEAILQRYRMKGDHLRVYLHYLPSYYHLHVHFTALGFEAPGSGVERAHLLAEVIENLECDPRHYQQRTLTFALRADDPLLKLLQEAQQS
Description: Binding affinity to human recombinant DcpS by fluorescence quenching titration method

The test system of a further data set is Nucleic Acid. Nature of the data set: Capping efficiency in mRNA after 60 mins by gel electrophoresis in the presence of SP6 polymerase. It counts as nucleic-acid assay.
In data set [13] the target is Eukaryotic translation initiation factor 4E (Oryctolagus cuniculus) (UniProt P29338). Briefly: Inhibition of eIF4E-mediated mRNA translation in rabbit reticulocyte lysate assessed as translation efficiency after 60 mins by luciferase reporter gene assay relative to m7GpppG-capped mRNA.

Calls of active or inactive are those of the source. No cut-off for these calls is given here. A value given as a limit tells only on which side of the number the result lay.

Eukaryotic translation initiation factor 4E (Homo sapiens), sequence (P06730 whole entry): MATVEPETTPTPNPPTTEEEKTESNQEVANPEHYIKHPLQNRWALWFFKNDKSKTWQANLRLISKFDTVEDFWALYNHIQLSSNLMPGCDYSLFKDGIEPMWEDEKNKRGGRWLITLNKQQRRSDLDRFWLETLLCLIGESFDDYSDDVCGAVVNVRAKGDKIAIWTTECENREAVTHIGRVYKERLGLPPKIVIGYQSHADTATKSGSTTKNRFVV
T1 sequence (P29338 whole entry): as the sequence (P06730 whole entry) above, with T16P, T17A, E174D counted along it
Eukaryotic translation initiation factor 4E (Oryctolagus cuniculus), sequence (P29338 whole entry): as the sequence (P06730 whole entry) above, with T16P, T17A, E174D counted along it

For the compound `C[n+]1cn([C@@H]2O[C@H](COP(=O)([O-])NP(=O)([O-])OP(=O)([O-])OP(=O)([O-])OC[C@H]3O[C@@H](n4cnc5c(=O)[nH]c(N)nc54)[C@H](O)[C@@H]3O)[C@@H](O)[C@H]2O)c2nc(N)[nH]c(=O)c21.[Na+].[Na+].[Na+]`, the Drug degradation result in data set [1], in [3], in [5] and in data set [9] was “Not Active” in each case. For the same compound, the degraded at 24 h, 5000 µM in [2], in [4] and in data set [6] was less than 10% in each case. The Stability entry in data set [7] is recorded as “Stable”. Moreover, the Ka came out at 112 µM⁻¹ in data set [8] and 155 µM⁻¹ in data set [12]. For the same compound, the Ratio in the data set listed under Homo sapiens stood at 1.4. Moreover, the IC50 in data set [10] came to 2.62 µM; in data set [11], 3.58 µM.

Consider `CO[C@@H]1[C@H](O)[C@@H](COP(=O)([O-])NP(=O)(O)OP(=O)(O)OP(=O)(O)OC[C@H]2O[C@@H](n3cnc4c(=O)[nH]c(N)nc43)[C@H](O)[C@@H]2O)O[C@H]1n1c[n+](C)c2c(=O)[nH]c(N)nc21.N.N.N`, for which the Drug degradation entry in data set [1], in [3], in data set [5] and in [9] was “Not Active” throughout. Besides, the degraded at 24 h, 5000 µM in data set [2], in [4] and in data set [6] was less than 10% each time. In addition, in data set [7], the Stability entry is “Stable”. Further, the Ka worked out at 125 µM⁻¹ in data set [8] and 47.4 µM⁻¹ in data set [12]. The Ratio in the data set filed under Homo sapiens was determined as 0.38. Moreover, the outcome in the data set on Nucleic Acid was Active. In addition, the fold change (FC) in [13] is 0.73.

On to `CO[C@@H]1[C@H](O)[C@@H](COP(=O)(O)OP(=O)([O-])OP(=O)(O)OC[C@H]2O[C@@H](n3cnc4c(=O)[nH]c(N)nc43)[C@H](O)[C@@H]2O)O[C@H]1n1c[n+](C)c2c(O)nc(N)nc21`, for which the Ka in data set [8] was 10.8 µM⁻¹.

With `C[n+]1cn([C@@H]2O[C@H](COP(=O)(O)OP(=O)([O-])OP(=O)(O)OC[C@H]3O[C@@H](n4cnc5c(=O)[nH]c(N)nc54)[C@H](O)[C@@H]3O)[C@@H](O)[C@H]2O)c2nc(N)[nH]c(=O)c21`, the IC50 in data set [11] was greater than 20 µM.

As to `C[n+]1cn([C@@H]2O[C@H](COP(=O)(O)OP(=O)(O)OP(=O)([O-])OP(=O)(O)OC[C@H]3O[C@@H](n4cnc5c(=O)[nH]c(N)nc54)[C@H](O)[C@@H]3O)[C@@H](O)[C@H]2O)c2nc(N)nc(O)c21`, in [8], the Ka turned out to be 111 µM⁻¹.

In the case of `Nc1nc2c(ncn2[C@@H]2O[C@H](COP(=O)(O)OP(=O)(O)OP(=O)(O)OC[C@H]3O[C@@H](n4cnc5c(N)ncnc54)[C@H](O)[C@@H]3O)[C@@H](O)[C@H]2O)c(=O)[nH]1`, the fold change (FC) in data set [13] stood at 0.18.

For `C[n+]1cn([C@@H]2O[C@H](COP(=O)(O)OP(=O)(O)OP(=O)(O)OP(=O)(O)OC[C@H]3O[C@@H](n4cnc5c(=O)[nH]c(N)nc54)[C@H](O)[C@@H]3O)[C@@H](O)[C@H]2O)c2nc(N)[n-]c(=O)c21`, the Drug degradation entry in [9] was “Active”. The IC50 in data set [10] was 5 µM; in data set [11], greater than 20 µM.

For `C[n+]1cn([C@@H]2O[C@H](COP(=O)([O-])OP(=O)(O)OP(=O)(O)NP(=O)(O)OC[C@H]3O[C@@H](n4cnc5c(=O)[nH]c(N)nc54)[C@H](O)[C@@H]3O)[C@@H](O)[C@H]2O)c2nc(N)[nH]c(=O)c21.N.N.N`, the Drug degradation result in [1] is given as “Not Active”; in data set [3], “Not Active”; in data set [5], “Not Active”; in data set [9] it was “Active”. For the same compound, the degraded at 24 h, 5000 µM in data set [2], in data set [4] and in data set [6] was less than 10% each time. For the same compound, the Stability entry in data set [7] is “Stable”. Besides, the Ka in data set [8] stood at 141 µM⁻¹. In addition, the IC50 amounted to 3.52 µM in data set [10] and 16 µM in [11].

Turning to `CO[C@@H]1[C@H](O)[C@@H](COP(=O)(O)CP(=O)(O)OP(=O)([O-])OC[C@H]2O[C@@H](n3cnc4c(=O)[nH]c(N)nc43)[C@H](O)[C@@H]2O)O[C@H]1n1c[n+](C)c2c(O)nc(N)nc21`, in data set [13], the fold change (FC) was determined as 1.1.

Consider `C[n+]1cn([C@@H]2O[C@H](COP(=O)([O-])NP(=O)(O)OP(=O)(O)OC[C@H]3O[C@@H](n4cnc5c(=O)[nH]c(N)nc54)[C@H](O)[C@@H]3O)[C@@H](O)[C@H]2O)c2nc(N)[nH]c(=O)c21.N.N`, for which the Drug degradation result in [1], in data set [3], in data set [5] and in [9] was “Not Active” throughout. Moreover, the degraded at 24 h, 5000 µM in data set [2], in data set [4] and in [6] was less than 10% in each case. For the same compound, the Stability entry in data set [7] is “Stable”. In addition, the Ka in [8] was 14.6 µM⁻¹; in data set [12] it was 218 µM⁻¹. The Ratio in the data set filed under Homo sapiens worked out at 15. Besides, the values for the IC50 in [10] and in [11] were 3.97 µM and 3.74 µM, respectively.

Consider `C[n+]1cn([C@@H]2O[C@H](COP(=O)(O)OP(=O)([O-])OP(=O)(O)OC[C@H]3O[C@@H](n4cnc5c(=O)[nH]c(N)nc54)[C@H](O)[C@@H]3O)[C@@H](O)[C@H]2O)c2nc(N)nc(O)c21`, for which the Ka in data set [8] worked out at 12.5 µM⁻¹. Also, in the data set listed under Homo sapiens, the Ratio was greater than 1. The fold change (FC) in data set [13] amounted to 1.

As for `CO[C@@H]1[C@H](O)[C@@H](COP(=O)([O-])OP(=O)(O)CP(=O)(O)OC[C@H]2O[C@@H](n3cnc4c(=O)[nH]c(N)nc43)[C@H](O)[C@@H]2O)O[C@H]1n1c[n+](C)c2c(O)nc(N)nc21`, the fold change (FC) in data set [13] turned out to be 1.25.

`C[n+]1cn([C@@H]2O[C@H](COP(=O)(O)CP(=O)(O)OP(=O)([O-])OC[C@H]3O[C@@H](n4cnc5c(=O)[nH]c(N)nc54)[C@H](O)[C@@H]3O)[C@@H](O)[C@H]2O)c2nc(N)nc(O)c21`: the Ka in [8] is 6.3 µM⁻¹. For the same compound, the Ratio in the data set filed under Homo sapiens is 37.1.

As for `C[n+]1cn([C@@H]2O[C@H](COP(=O)(O)CP(=O)(O)OP(=O)([O-])OP(=O)(O)OC[C@H]3O[C@@H](n4cnc5c(=O)[nH]c(N)nc54)[C@H](O)[C@@H]3O)[C@@H](O)[C@H]2O)c2nc(N)nc(O)c21`, the Ka in data set [8] was determined as 51.8 µM⁻¹. In the data set listed under Homo sapiens, the Ratio came out at 3.1.

Consider `CO[C@H]1[C@@H](O)[C@H](n2c[n+](C)c3c(O)nc(N)nc32)O[C@@H]1COP(=O)(O)OP(=O)([O-])OP(=O)(O)OC[C@H]1O[C@@H](n2cnc3c(=O)[nH]c(N)nc32)[C@H](O)[C@@H]1O`, for which the fold change (FC) in [13] is 1.47.

As for `CO[C@@H]1[C@H](O)[C@@H](COP(=O)(O)CP(=O)(O)OP(=O)([O-])OP(=O)(O)OC[C@H]2O[C@@H](n3cnc4c(=O)[nH]c(N)nc43)[C@H](O)[C@@H]2O)O[C@H]1n1c[n+](C)c2c(O)nc(N)nc21`, in data set [13], the fold change (FC) worked out at 1.5.

For the compound `CO[C@@H]1[C@H](O)[C@@H](COP(=O)([O-])OP(=O)([O-])OP(=O)([O-])NP(=O)([O-])OC[C@H]2O[C@@H](n3cnc4c(=O)[nH]c(N)nc43)[C@H](O)[C@@H]2O)O[C@H]1n1c[n+](C)c2c(=O)[nH]c(N)nc21.[Na+].[Na+].[Na+]`, the Drug degradation entry in data set [1] is recorded as “Not Active”; in data set [3], “Not Active”; in data set [5] it was “Not Active”; in [9] it was “Active”. Further, the degraded at 24 h, 5000 µM in data set [2], in [4] and in [6] was less than 10% in each case. Moreover, the Stability result in data set [7] is listed as “Stable”. For the same compound, in [8], the Ka worked out at 132 µM⁻¹. Moreover, the result in the data set with Nucleic Acid was Active. For the same compound, the fold change (FC) in [13] is 1.01.

Compound `C[n+]1cn([C@@H]2O[C@H](COP(=O)(S)OP(=O)(O)OP(=O)([O-])OC[C@H]3O[C@@H](n4cnc5c(=O)[nH]c(N)nc54)[C@H](O)[C@@H]3O)[C@@H](O)[C@H]2O)c2nc(N)[nH]c(=O)c21` (some centres undefined) gave a Ka in [12] of 146 µM⁻¹.

With `CO[C@@H]1[C@H](O)[C@@H](COP(=O)(O)OP(=O)([O-])OP(=O)(O)CP(=O)(O)OC[C@H]2O[C@@H](n3cnc4c(=O)[nH]c(N)nc43)[C@H](O)[C@@H]2O)O[C@H]1n1c[n+](C)c2c(O)nc(N)nc21`, the fold change (FC) in data set [13] came out at 1.56.

As to `CO[C@@H]1[C@H](O)[C@@H](COP(=O)(O)OP(=O)([O-])OP(=O)(O)OP(=O)(O)OC[C@H]2O[C@@H](n3cnc4c(=O)[nH]c(N)nc43)[C@H](O)[C@@H]2O)O[C@H]1n1c[n+](C)c2c(O)nc(N)nc21`, in data set [8], the Ka was 99.8 µM⁻¹. Further, the Drug degradation result in data set [9] was “Active”. The fold change (FC) in data set [13] came to 1.56.
